Source: patent US20250154169A1, “COMPOUNDS AND METHODS FOR MODULATING SPLICING” (REMIX THERAPEUTICS INC., priority 2021, published 2025)
pIC50: −log10 of the molar value.

Experiments:
Type in all cases: cell-based, human
[1] = tested on: Target C mRNA; assay: Splicing RT-qPCR gene panel, Target C canonical junction (CJ) mRNA; details: Homo sapiens, Tables 4A/4B, read-out: Target C (IC50, decrease in CJ mRNA, gene panel)
Summary of the method: (§1)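 A673/K562, 24 h cpd, 11-pt 3-fold from 10 uM, DMSO ≤0.25%. Lysis, direct RT-qPCR of CJ isoform, ≥duplicate. GAPDH/GUSB/PPIA norm, ΔΔCt vs DMSO → RQ → % response.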

[2] = tested on: SMN2 mRNA; assay: Splicing RT-qPCR gene panel, SMN2 canonical junction (CJ) mRNA; details: Homo sapiens, Tables 4A/4B, read-out: SMN2 (IC50, decrease in CJ mRNA, gene panel)
Summary of the method: as §1

[3] = tested on: HTT mRNA; assay: Splicing RT-qPCR gene panel, HTT canonical junction (CJ) mRNA; details: Homo sapiens, Tables 4A/4B, read-out: HTT (IC50, decrease in CJ mRNA, gene panel)
Summary of the method: as §1

Row | Structure (SMILES) | pIC50 [1] | pIC50 [2] | pIC50 [3]
1 | Cc1cn2cc(NC(=O)c3ccc(N4CCNC5(CC5)C4)c4cc(C)oc34)cc(F)c2n1 [Compound 194] | < 5.00 | > 7.00 | 5.00 to 6.00
2 | Cc1cn2cc(NC(=O)c3ccc(N4CCNC(C)(C)C4)c4cc(C)oc34)cc(F)c2n1 [Compound 193] | < 5.00 | > 7.00 | 5.00 to 6.00
3 | Cc1cc2c(N3CCNCC3)ccc(C(=O)Nc3cc(F)c4cn(C)nc4c3)c2o1 [Compound 217] | < 5.00 | 5.00 to 6.00 | < 5.00
4 | CC1=CC2C(N3CCC(N(C)C)CC3)=CC=C(C(=O)Nc3cc(F)c4nc(C)cn4c3)C2O1 (stereo not drawn) [Compound 198] | 5.00 to 6.00 | > 7.00 | 5.00 to 6.00
5 | CCNC1CCN(c2ccc(C(=O)Nc3cc(F)c4nc(C)cn4c3)c3oc(C)cc23)CC1 [Compound 196] | 5.00 to 6.00 | > 7.00 | 5.00 to 6.00
6 | Cc1cn2cc(NC(=O)c3ccc(N4CCNC(C)C4)c4cc(C)oc34)cc(F)c2n1 (stereo not drawn) [Compound 190] | 5.00 to 6.00 | 6.00 to 7.00 | 6.00 to 7.00
7 | Cc1cn2nc(NC(=O)c3ccc(C4CCNCC4)c4cc(C)oc34)cc(C)c2n1 [Compound 118] | < 5.00 | 6.00 to 7.00 | 5.00 to 6.00
8 | Cc1cn2cc(NC(=O)c3ccc(N4CCN(C)C(C)C4)c4cc(C)oc34)cc(F)c2n1 (stereo not drawn) [Compound 191] | 5.00 to 6.00 | > 7.00 | 6.00 to 7.00
9 | Cc1cn2cc(NC(=O)c3ccc(N4CC(C)(C)NC(C)(C)C4)c4cc(C)oc34)cc(F)c2n1 [Compound 195] | < 5.00 | > 7.00 | < 5.00
10 | Cc1cn2cc(NC(=O)c3ccc(C4CCNCC4)c4ccoc34)cc(F)c2n1 [Compound 149] | < 5.00 | > 7.00 | 5.00 to 6.00
11 | Cc1cn2cc(NC(=O)c3ccc(N4CCN5CCCC5C4)c4cc(C)oc34)cc(F)c2n1 (stereo not drawn) [Compound 199] | 5.00 to 6.00 | > 7.00 | 6.00 to 7.00
12 | Cc1cn2nc(NC(=O)c3ccc(C4CCNCC4)c4ccoc34)cc(C)c2n1 [Compound 119] | < 5.00 | 6.00 to 7.00 | 5.00 to 6.00
13 | Cc1cn2cc(NC(=O)c3ccc(N4CCC(NC(C)(C)C)CC4)c4cc(C)oc34)cc(F)c2n1 [Compound 197] | < 5.00 | 6.00 to 7.00 | < 5.00
14 | Cc1cn2cc(NC(=O)c3ccc(N4CCN(C)CC4)c4cc(C)oc34)cc(F)c2n1 [Compound 189] | 5.00 to 6.00 | > 7.00 | 5.00 to 6.00
15 | CCC1CN(c2ccc(C(=O)Nc3cc(F)c4nc(C)cn4c3)c3oc(C)cc23)CCN1 (stereo not drawn) [Compound 192] | 5.00 to 6.00 | > 7.00 | 5.00 to 6.00

Further lines, results first:

Row | pIC50 [1] | pIC50 [2] | pIC50 [3] | Structure (SMILES)
16 | 6.00 to 7.00 | > 7.00 | 5.00 to 6.00 | Cc1cn2cc(NC(=O)c3ccc(N4CCNCC4)c4cc(C)oc34)cc(F)c2n1 [Compound 142]
17 | 5.00 to 6.00 | 6.00 to 7.00 | 5.00 to 6.00 | Cc1cn2cc(NC(=O)c3ccc(N4CCNCC4)c4nc(C)oc34)cc(F)c2n1 [Compound 140]
18 | 5.00 to 6.00 | 6.00 to 7.00 | 5.00 to 6.00 | Cc1cn2nc(NC(=O)c3ccc(N4CCNCC4)c4cc(C)oc34)cc(C)c2n1 [Compound 148]
19 | 6.00 to 7.00 | > 7.00 | 6.00 to 7.00 | Cc1cn2cc(NC(=O)c3ccc(C4CCNCC4)c4cn(C)nc34)cc(F)c2n1 [Compound 208]
20 | 6.00 to 7.00 | > 7.00 | > 7.00 | Cc1cn2cc(NC(=O)c3ccc(N4CCNCC4)c4cn(C)nc34)cc(F)c2n1 [Compound 143, N-{8-fluoro-2-methylimidazo[1,2-a]pyridin-6-yl}-2-methyl-4-(piperazin-1-yl) indazole-7-carboxamide]
21 | 6.00 to 7.00 | > 7.00 | 5.00 to 6.00 | Cc1cn2cc(NC(=O)c3ccc(C4CCNCC4)c4cc(C)oc34)cc(F)c2n1 [Compound 145]
22 | 6.00 to 7.00 | > 7.00 | > 7.00 | Cc1cn2cc(NC(=O)c3ccc(N4CCNCC4)c4oc(C)nc34)cc(F)c2n1 [Compound 141]
